# Test results published in patent US20100050299A1, “POST-HARVEST TREATMENT OF FRUITS WITH AN ANTIFUNGAL COMPOSITION” (priority 2006, published 2010).
# Experiments:
# [1] = system: Colletotridcum musae CBS19231; experiment: Treatment of banana clusters wounded at the hand, Neocryl and xanthan instead of Bond and Zipper (Example 6); format: in vivo; settings: for wounds with mould growth: after 15 days of incubation, 6 wounds; for Number of wounds showing mould growth/Total number of wounds: after 15 days, Neocryl 21.3 g/l and xanthan 1.0 g/l, 6 wounds (3 clusters, 2 wounds per cluster at the hand)
# Description: (§1) In this experiment organic bananas, Sabrosa® from the Dominican Republic, were used. The bananas were obtained from a local retailer in The Netherlands. The bananas were treated with spores of the phytopathogenic mould Colletotridcum musae CBS19231. The mould spores were obtained using well-known methods. The bananas were injured according to the method described by de Lapere de Bellaire and Dubois (1987). Bananas were wounded two times using a cork borer followed by contamination with approximately 2.5×10^4 mould spores of C. musae CBS19231 per wound. After incubation for 4 hours at room temperature, the bananas were dipped for one minute in one of the following compositions: a) no treatment (control 1), b) dipped in water (control 2), c) dipped in 1000 ppm natamycin, d) dipped in 240 mM of potassium phosphite, e) dipped in 1000 ppm of natamycin+240 mM of potassium phosphite. The experiment was executed in triplo; the natamycin and potassium phosphite solution were prepared using well-known methods. All compositions contained 0.1% (v/v) of the sticking agent Bond® (Loveland Industries Ltd.) and 0.14% (v/v) of the surfactant Zipper® (Asepta BV, The Netherlands). After this treatment the bananas were incubated in closed boxes at 21° C. at elevated humidity. Each day the bananas were judges visually on mould development.
# (§2) In this experiment freshly harvested bananas were used. A few days after harvesting and the de-latexing treatment to remove latex which is leaking from the wounds using well-known methods, the bananas were infected with mould spores and treated as described in Example 1. For each composition, 3 clusters comprising 4 bananas per cluster were used (experiment done in triplo).
# (§3) The experiment described in this example was done identically compared to the experiment described in Example 3, with the proviso that bananas were harvested and thereafter new wounds were made with a knife at the stalk of the banana clusters (2 wounds were made per cluster).
# The experiment described herein was executed as described in Example 4, with the proviso that the sticking agent Bond® and the surfactant Zipper® were replaced by Neocryl® (DSM) and xanthan in a concentration of respectively 21.3 g/l and 1.0 g/l. Three clusters comprising 4 bananas each were wounded two times at the hand of the cluster resulting in a total number of wounds of 6.
# [2] = system: Colletotridcum musae CBS19231; experiment: Treatment of freshly harvested banana clusters, new wounds made with a knife at the stalk (Example 4); format: in vivo; settings: for mould growth on banana clusters: after 15 days of incubation, 3 banana clusters; for Number of clusters showing severe mould growth/Total number of clusters: after 15 days, freshly harvested, 3 clusters, 2 wounds per cluster at the stalk
# Description: as §1, §2, §3
# moulds on bananas = settings: in vivo; cited from earlier work
# [3] = system: Colletotridcum musae CBS19231; experiment: Treatment of bananas, Neocryl and xanthan instead of Bond and Zipper (Example 5); format: in vivo; settings: after 15 days; for wounds showing mould growth: 12 wounds; for Number of wounds showing mould growth/Total number of wounds: Neocryl 21.3 g/l and xanthan 1.0 g/l, 12 wounds (6 bananas with 2 wounds per banana)
# Description: as §1
# The experiment described herein was executed as described in Example 1. However, in this experiment the sticking agent Bond® and the surfactant Zipper® were not used; instead Neocryl® (DSM) and xanthan were applied in a concentration of respectively 21.3 g/l and 1.0 g/l. In this experiment 12 wounds were made instead of 6 (2 wounds per banana; 6 bananas wounded).
# [4] = system: Colletotridcum musae CBS19231; experiment: Treatment of bananas wounded with a cork borer and contaminated with mould spores, then dipped (Example 1); format: in vivo; settings: for Number of wounds showing mould growth/Total number of wounds: after 15 days at 21° C., dipped one minute, 1000 ppm natamycin, 240 mM potassium phosphite, 6 wounds (3 bananas with 2 wounds per banana); for wounds showing mould growth: after 15 days, out of 6 wounds
# Description: as §1
# [5] = system: Colletotridcum musae CBS19231; experiment: Treatment of freshly harvested banana clusters (Example 3); format: in vivo; settings: for bananas of the clusters on which moulds were observed: after 15 days of incubation, 12 bananas; for Number of bananas showing mould growth/Total number of bananas: after 15 days, freshly harvested, 12 bananas (3 clusters with 4 bananas per cluster)
# Description: as §1, §2
# [6] = system: Colletotridcum musae CBS19231; experiment: Treatment of bananas with wounds made with a knife at the stalk (Example 2); format: in vivo; settings: for wounds/bananas with mould growth: after 15 days of incubation, 3 bananas, wound at the stalk; for Number of wounds showing mould growth/Total number of wounds: after 15 days, 3 wounds (3 bananas with 1 wound made at the stalk per banana)
# Description: as §1
# The experiment described in this example was done identically compared to the experiment described in Example 1, with the proviso that the wounds were made with a knife at the stalk of the bananas.
Compound,wounds with mould growth [1],Number of wounds showing mould growth/Total number of wounds [1],mould growth on banana clusters [2],Number of clusters showing severe mould growth/Total number of clusters [2],control of moulds on bananas (moulds on bananas),spectrum of action (moulds on bananas),wounds showing mould growth [3],Number of wounds showing mould growth/Total number of wounds [3],Number of wounds showing mould growth/Total number of wounds [4],wounds showing mould growth [4],bananas of the clusters on which moulds were observed [5],Number of bananas showing mould growth/Total number of bananas [5],wounds/bananas with mould growth [6],Number of wounds showing mould growth/Total number of wounds [6]
"C[C@@H]1C/C=C/C=C/C=C/C=C/[C@H](O[C@@H]2O[C@H](C)[C@@H](O)[C@H](N)[C@@H]2O)C[C@@H]2O[C@](O)(C[C@@H](O)C[C@H]3O[C@@H]3/C=C/C(=O)O1)C[C@H](O)[C@H]2C(=O)O [Composition c, natamycin]",all wounds,6/6,in all of the natamycin treated banana clusters,3/3,not sufficiently active,broad spectrum action,50%,6/12,6/6,6,all bananas,12/12,2 of 3,2/3
potassium phosphite [Composition d],all wounds,6/6,2 of the 3,2/3,–,–,25%,3/12,5/6,5 out of 6,all bananas,12/12,all wounds,3/3
